From patent publication US20250081967A1, “PESTICIDALLY ACTIVE HETEROCYCLIC DERIVATIVES WITH SULFOXIMINE CONTAINING SUBSTITUENTS” (SYNGENTA CROP PROTECTION AG, priority 2021, published 2025)

Assays:
Assay type in all cases: in vivo
Chilo suppressalis = experiment: Activity against Chilo suppressalis (striped rice stemborer), artificial diet; conditions: 144 h, application rate 200 ppm, L2 larvae, 6 days after infestation
Method: Example B11: Activity Against Chilo suppressalis (Striped Rice Stemborer)
24-well microtiter plates with artificial diet were treated with aqueous test solutions prepared from 10′000 ppm DMSO stock solutions by pipetting. After drying, the plates were infested with L2 larvae (6-8 per well). The samples were assessed for mortality, anti-feeding effect, and growth inhibition in comparison to untreated samples 6 days after infestation. Control of Chilo suppressalis by a test sample is given when at least one of the categories mortality, anti-feedant effect, and growth inhibition is higher than the untreated sample.

Plutella xylostella = experiment: Activity against Plutella xylostella (diamond back moth), artificial diet, L2 larvae; conditions: 120 h, application rate 200 ppm, 5 days after infestation, read-out: effect in at least one of the two categories (mortality or growth inhibition)
Method: Example B2: Activity Against Plutella xylostella (Diamond Back Moth)
(§1) 24-well microtiter plates with artificial diet were treated with aqueous test solutions prepared from 10′000 ppm DMSO stock solutions by pipetting. After drying, the plates were infested with L2 larvae (10 to 15 per well). The samples were assessed for mortality and growth inhibition in comparison to untreated samples 5 days after infestation.

Myzus persicae [1] = experiment: Activity against Myzus persicae (green peach aphid), systemic activity, pea seedlings; conditions: Myzus persicae, 144 h, test rate 24 ppm; systemic; 6 days after placing seedlings in test solutions
Method: Example B5: Activity Against Myzus persicae (Green Peach Aphid) Systemic Activity
Roots of pea seedlings infested with an aphid population of mixed ages were placed directly in the aqueous test solutions prepared from 10′000 DMSO stock solutions. The samples were assessed for mortality 6 days after placing seedlings in test solutions.

Bemisia tabaci = experiment: Activity against Bemisia tabaci (cotton white fly), cotton leaf discs; conditions: foliar, 144 h, application rate 200 ppm, adult white flies, 6 days after incubation
Method: Example B6: Activity Against Bemisia tabaci (Cotton White Fly)
Cotton leaf discs were placed on agar in 24-well microtiter plates and sprayed with aqueous test solutions prepared from 10′000 ppm DMSO stock solutions. After drying the leaf discs were infested with adult white flies. The samples were checked for mortality 6 days after incubation.

Spodoptera littoralis = experiment: Activity against Spodoptera littoralis (Egyptian cotton leaf worm), cotton leaf discs; conditions: foliar, 72 h, application rate 200 ppm, L1 larvae, 3 days after infestation, read-out: control (mortality, anti-feeding effect or growth inhibition)
Procedure, shortened: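 Cotton leaf discs on agar sprayed with aqueous test solutions made from 10′000 ppm DMSO stocks, dried, then infested with five L1 larvae. Mortality, anti-feeding and growth inhibition scored versus untreated samples 3 days after infestation; control given when any category exceeds untreated.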

Euschistus heros = experiment: Activity against Euschistus heros (neotropical brown stink bug), soybean leaf; conditions: 120 h, application rate 200 ppm, N-2 nymphs, 5 days after infestation, read-out: effect in at least one of the two categories (mortality or growth inhibition)
Method: Example B7: Activity Against Euschistus heros (Neotropical Brown Stink Bug)
Soybean leaf on agar in 24-well microtiter plates were sprayed with aqueous test solutions prepared from 10′000 ppm DMSO stock solutions. After drying the leaf were infested with N-2 nymphs. The samples were assessed for mortality and growth inhibition in comparison to untreated samples 5 days after infestation.

Diabrotica balteata = experiment: Activity against Diabrotica balteata (corn root worm), maize sprouts; conditions: 96 h, application rate 200 ppm, L2 larvae, 4 days after infestation, read-out: effect in at least one of the two categories (mortality or growth inhibition)
Method: Example B3: Activity Against Diabrotica Balteata (Corn Root Worm)
as §1, with “Maize sprouts placed onto an agar layer in 24-well” for “24-well”, “plates” for “plates with artificial diet”, “spraying.” for “pipetting.”, “(6” for “(10”, “10” for “15”, “4” for “5”

Myzus persicae [2] = experiment: Activity against Myzus persicae (green peach aphid), feeding/contact activity, sunflower leaf discs; conditions: Myzus persicae, foliar, 144 h, application rate 200 ppm; feeding/contact; 6 days after infestation
Method: Example B4: Activity Against Myzus persicae (Green Peach Aphid) Feeding/Contact Activity
Sunflower leaf discs were placed on agar in a 24-well microtiter plate and sprayed with aqueous test solutions prepared from 10′000 ppm DMSO stock solutions. After drying, the leaf discs were infested with an aphid population of mixed ages. The samples were assessed for mortality 6 days after infestation.

CCS(=N)(=O)c1cc(C(C)(C)C#N)cnc1-c1nc2cc(C(F)(F)F)cnc2n1C (single isomer, unassigned) [Compound P12-B, 2-[5-(ethylsulfonimidoyl)-6-[3-methyl-6-(trifluoromethyl)imidazo[4,5-b]pyridin-2-yl]-3-pyridyl]-2-methyl-propanenitrile]
≥ 80%: percent control (mortality, anti-feedant effect or growth inhibition) at 200 ppm (Chilo suppressalis)

CCn1c(C(F)(F)F)cc2nc(-c3ncc(C4(C#N)CC4)cc3S(=N)(=O)CC)n(C)c2c1=O (racemic) [Compound P14, 1-[6-[5-ethyl-3-methyl-4-oxo-6-(trifluoromethyl)imidazo[4,5-c]pyridin-2-yl]-5-(ethylsulfonimidoyl)-3-pyridyl]cyclopropanecarbonitrile]
≥ 80%: percent effect (mortality or growth inhibition) at 200 ppm (Plutella xylostella) | mortality at 24 ppm (Myzus persicae [1]) | mortality at 200 ppm (Bemisia tabaci) | percent control (mortality, anti-feedant effect or growth inhibition) at 200 ppm (Spodoptera littoralis) | percent effect (mortality or growth inhibition) at 200 ppm (Euschistus heros) | percent effect (mortality or growth inhibition) at 200 ppm (Diabrotica balteata) | mortality at 200 ppm (Myzus persicae [2])

CCS(=N)(=O)c1cc(OC(C)(C)C#N)c(C)nc1-c1nc2cc(C(F)(F)F)ncc2n1C (racemic) [Compound P17, 2-[[5-(ethylsulfonimidoyl)-2-methyl-6-[3-methyl-6-(trifluoromethyl)imidazo[4,5-c]pyridin-2-yl]-3-pyridyl]oxy]-2-methyl-propanenitrile]
≥ 80%: percent effect (mortality or growth inhibition) at 200 ppm (Plutella xylostella) | mortality at 24 ppm (Myzus persicae [1]) | mortality at 200 ppm (Bemisia tabaci) | percent control (mortality, anti-feedant effect or growth inhibition) at 200 ppm (Spodoptera littoralis) | mortality at 200 ppm (Myzus persicae [2])

CCS(=N)(=O)c1cc(C(C)(C)C#N)cnc1-c1nc2cc(C(F)(F)F)cnc2n1C (racemic) [Compound P12, 2-[5-(ethylsulfonimidoyl)-6-[3-methyl-6-(trifluoromethyl)imidazo[4,5-b]pyridin-2-yl]-3-pyridyl]-2-methyl-propanenitrile]
≥ 80%: percent effect (mortality or growth inhibition) at 200 ppm (Plutella xylostella) | mortality at 24 ppm (Myzus persicae [1]) | mortality at 200 ppm (Bemisia tabaci) | percent control (mortality, anti-feedant effect or growth inhibition) at 200 ppm (Spodoptera littoralis) | percent effect (mortality or growth inhibition) at 200 ppm (Diabrotica balteata) | mortality at 200 ppm (Myzus persicae [2])

CCS(=N)(=O)c1cc(C2(C#N)CC2)ccc1-c1nc2cc(C(F)(F)F)cnc2n1C (racemic) [Compound P6, 1-[3-(ethylsulfonimidoyl)-4-[3-methyl-6-(trifluoromethyl)imidazo[4,5-b]pyridin-2-yl]phenyl]cyclopropanecarbonitrile]
≥ 80%: percent effect (mortality or growth inhibition) at 200 ppm (Plutella xylostella) | mortality at 24 ppm (Myzus persicae [1]) | mortality at 200 ppm (Bemisia tabaci) | percent control (mortality, anti-feedant effect or growth inhibition) at 200 ppm (Spodoptera littoralis) | percent effect (mortality or growth inhibition) at 200 ppm (Euschistus heros) | mortality at 200 ppm (Myzus persicae [2])

CCS(=N)(=O)c1cc(C2(C#N)CC2)cnc1-c1nc2cc(C(F)(F)F)cnc2n1C (racemic) [Compound P16, 1-[5-(ethylsulfonimidoyl)-6-[3-methyl-6-(trifluoromethyl)imidazo[4,5-b]pyridin-2-yl]-3-pyridyl]cyclopropanecarbonitrile]
≥ 80%: percent effect (mortality or growth inhibition) at 200 ppm (Plutella xylostella) | mortality at 24 ppm (Myzus persicae [1]) | mortality at 200 ppm (Bemisia tabaci) | mortality at 200 ppm (Myzus persicae [2])

CCn1c(C(F)(F)F)cc2nc(-c3ncc(OC(C)(C)C#N)cc3S(=N)(=O)CC)n(C)c2c1=O (racemic) [Compound P19, 2-[[6-[5-ethyl-3-methyl-4-oxo-6-(trifluoromethyl)imidazo[4,5-c]pyridin-2-yl]-5-(ethylsulfonimidoyl)-3-pyridyl]oxy]-2-methyl-propanenitrile]
≥ 80%: percent effect (mortality or growth inhibition) at 200 ppm (Plutella xylostella) | mortality at 24 ppm (Myzus persicae [1]) | mortality at 200 ppm (Bemisia tabaci) | percent control (mortality, anti-feedant effect or growth inhibition) at 200 ppm (Spodoptera littoralis) | percent effect (mortality or growth inhibition) at 200 ppm (Euschistus heros) | percent effect (mortality or growth inhibition) at 200 ppm (Diabrotica balteata) | mortality at 200 ppm (Myzus persicae [2])

CCS(=N)(=O)c1cc(C2(C#N)CC2)cnc1-c1nc2cc(C(F)(F)F)n(OC)c(=O)c2n1C (racemic) [Compound P8, 1-[5-(ethylsulfonimidoyl)-6-[5-methoxy-3-methyl-4-oxo-6-(trifluoromethyl)imidazo[4,5-c]pyridin-2-yl]-3-pyridyl]cyclopropanecarbonitrile]
≥ 80%: percent effect (mortality or growth inhibition) at 200 ppm (Plutella xylostella) | mortality at 24 ppm (Myzus persicae [1]) | mortality at 200 ppm (Bemisia tabaci) | percent control (mortality, anti-feedant effect or growth inhibition) at 200 ppm (Spodoptera littoralis) | percent effect (mortality or growth inhibition) at 200 ppm (Euschistus heros) | percent effect (mortality or growth inhibition) at 200 ppm (Diabrotica balteata) | mortality at 200 ppm (Myzus persicae [2])

CCS(=N)(=O)c1cc(OC(C)(C)C#N)cnc1-c1nc2cc(C(F)(F)F)cnc2n1C (racemic) [Compound P9, 2-[[5-(ethylsulfonimidoyl)-6-[3-methyl-6-(trifluoromethyl)imidazo[4,5-b]pyridin-2-yl]-3-pyridyl]oxy]-2-methyl-propanenitrile]
≥ 80%: percent effect (mortality or growth inhibition) at 200 ppm (Plutella xylostella) | mortality at 24 ppm (Myzus persicae [1]) | mortality at 200 ppm (Bemisia tabaci) | percent control (mortality, anti-feedant effect or growth inhibition) at 200 ppm (Spodoptera littoralis) | percent effect (mortality or growth inhibition) at 200 ppm (Euschistus heros) | percent effect (mortality or growth inhibition) at 200 ppm (Diabrotica balteata) | mortality at 200 ppm (Myzus persicae [2])

CCS(=N)(=O)c1cc(OC(C)(C)C#N)c(C)nc1-c1nc2cc(C(F)(F)F)cnc2n1C (racemic) [Compound P5, 2-[[5-(ethylsulfonimidoyl)-2-methyl-6-[3-methyl-6-(trifluoromethyl)imidazo[4,5-b]pyridin-2-yl]-3-pyridyl]oxy]-2-methyl-propanenitrile]
≥ 80%: percent effect (mortality or growth inhibition) at 200 ppm (Plutella xylostella) | mortality at 24 ppm (Myzus persicae [1]) | mortality at 200 ppm (Bemisia tabaci) | percent control (mortality, anti-feedant effect or growth inhibition) at 200 ppm (Spodoptera littoralis) | percent effect (mortality or growth inhibition) at 200 ppm (Euschistus heros) | percent effect (mortality or growth inhibition) at 200 ppm (Diabrotica balteata) | mortality at 200 ppm (Myzus persicae [2])

CCS(=N)(=O)c1cc(OC(C)(C)C#N)cnc1-c1cn2ccc(C(F)(F)F)cc2n1 (racemic) [Compound P3, 2-[[5-(ethylsulfonimidoyl)-6-[7-(trifluoromethyl)imidazo[1,2-a]pyridin-2-yl]-3-pyridyl]oxy]-2-methyl-propanenitrile]
≥ 80%: percent effect (mortality or growth inhibition) at 200 ppm (Plutella xylostella) | percent control (mortality, anti-feedant effect or growth inhibition) at 200 ppm (Spodoptera littoralis) | percent effect (mortality or growth inhibition) at 200 ppm (Diabrotica balteata) | mortality at 200 ppm (Myzus persicae [2])

CCS(=N)(=O)c1cc(OC(C)(C)C#N)cnc1-c1nc2cc(C(F)(F)F)nnc2n1C (racemic) [Compound P15, 2-[[5-(ethylsulfonimidoyl)-6-[7-methyl-3-(trifluoromethyl)imidazo[4,5-c]pyridazin-6-yl]-3-pyridyl]oxy]-2-methyl-propanenitrile]
≥ 80%: percent effect (mortality or growth inhibition) at 200 ppm (Plutella xylostella) | mortality at 24 ppm (Myzus persicae [1]) | mortality at 200 ppm (Bemisia tabaci) | percent effect (mortality or growth inhibition) at 200 ppm (Euschistus heros) | percent effect (mortality or growth inhibition) at 200 ppm (Diabrotica balteata) | mortality at 200 ppm (Myzus persicae [2])

CCS(=N)(=O)c1cc(OC(C)(C)C#N)cnc1-c1cn2cnc(C(F)(F)F)cc2n1 (racemic) [Compound P11, 2-[[5-(ethylsulfonimidoyl)-6-[7-(trifluoromethyl)imidazo[1,2-c]pyrimidin-2-yl]-3-pyridyl]oxy]-2-methyl-propanenitrile]
≥ 80%: percent effect (mortality or growth inhibition) at 200 ppm (Plutella xylostella) | mortality at 24 ppm (Myzus persicae [1]) | mortality at 200 ppm (Bemisia tabaci) | percent control (mortality, anti-feedant effect or growth inhibition) at 200 ppm (Spodoptera littoralis) | percent effect (mortality or growth inhibition) at 200 ppm (Diabrotica balteata) | mortality at 200 ppm (Myzus persicae [2])
